Reference: patent US20250026733A1, “DEUTERATED ANALOGS OF PYROLE INHIBITORS OF ERK, SYNTHESIS THEREOF AND INTERMEDIATES THERETO” (BIOMED VALLEY DISCOVERIES, INC., priority 2022, published 2025)
Where two headings read alike, the source gives them in different places. Marks after values point to notes of the source that are not given here.

How the values were obtained:
[1] = Pharmacokinetics and metabolite formation in rats; assay type: in vivo, rat; conditions: for AUC(0-t) / half-life: both sexes
Procedure: Ulixertinib, Formulas 18A, 19A, and 21A were dosed twice daily (12 hours apart, ±30 minutes) for five consecutive days (10 doses/animal) to rats via oral gavage (PO). Each compound was administered at a dose of 12.5 mg/kg to 6 rats (3 male/3 female, N=6 rats/compound). Each compound was formulated in 1% (w/v) carboxymethylcellulose (CMC) in water at a concentration of 1.25 mg/mL. Following the second (p.m.) dose on Day 5, blood samples were collected from each rat at approximately 0.5, 1, 2, 4, 6, 8, and 12 hours post-dose. Blood samples were centrifuged to obtain plasma. Plasma samples were analyzed for concentrations of the dosed compounds and selected metabolites using an established LC-MS/MS method. The lower limit of quantitation of each compound was 1.00 ng/mL. The rat half-life values (determined by non-compartmental analysis using WinNonlin software) for each compound are shown in Table 7, and the areas under curve from time 0 to hour 12 (AUC0-12), calculated using the linear trapezoidal rule, for each dosed compound and selected metabolites are presented in Table 8.

[2] = Steady-state exposure of ulixertinib and metabolites in rat; assay type: in vivo
Text: (§1) The steady state exposure levels of non-isotopically enriched parent ulixertinib and related metabolites in rat (day 5) and human subjects (day 15) is provided in TABLE 1 below: […]

[3] = Steady-state exposure of ulixertinib and metabolites in human subjects; assay type: in vivo
Text: as §1

[4] = system: pRSK/RSK in A375 cells; test: A375 pRSK/RSK dose response study (ELISA); assay type: cell-based; conditions: Homo sapiens, A-375, pRSK and total RSK ELISA
Procedure: A375 pRSK/RSK Dose Response Study
Briefly, A375 cells were plated at 30,000 cells/well in 2×96 well plates, allowed to recover overnight, washed and fed fresh media the next day then treated with a dose response of the selected compounds. Following the determined pretreatment with the compounds at 37° C./5% CO2 the media was aspirated, and cells lysed with cold, complete MSD lysis buffer. pRSK and total RSK were analyzed using CST/PathScan pRSK and total RSK ELISAS according to the respective kit protocols. All samples were analyzed at 90% of remaining sample in pRSK and 10% of remaining sample in total RSK ELISA, which was performed following kit protocols.

[5] = system: A375 cells; test: A375 proliferation assay (Cell TiterGlo); assay type: cell-based; conditions: Homo sapiens, A-375, 72 hours
Procedure: Mechanism of Action (MOA) Cell Assay—A375 Cell Proliferation, pERK/ERK and pRSK/RSK Analysis:
Briefly, A375 cells were plated at 10,000 cells/well in three 96 well plates. Plates were incubated overnight at 37° C. and allowed to recover. Cells were washed with 150 μL of DPBS and 90 μL of fresh media was added to each well. The cells were then treated with a dose response of the selected compounds. Compounds were diluted from stock concentrations (10 mM in DMSO). Serial dilutions were made in DMSO, yielding 8 total different concentrations per compound. At time of compound addition, the control plate was analyzed using Cell TiterGlo to set baseline for proliferation. Compound treated cells were allowed to grow at 37° C./5% CO2 for 72 hours then analyzed using Cell TiterGlo according to kit protocol.

AUC(0-t) ([1]; rat plasma, 12.5 mg/kg PO twice daily for five days, after second dose on Day 5, N=6, read-out: AUC0-12, Parent, Mean) | half-life ([1]; rat plasma, 12.5 mg/kg PO twice daily for five days, after second dose on Day 5, N=6, read-out: Half-life, t1/2, Mean (converted)) | % of total Ulixertinib related exposure ([2]; day 5, steady state) | AUC at 5 day ([2]; in vivo, day 5, non-isotopically enriched ulixertinib and related metabolites, read-out: Steady-State AUC (Mean ± SD)) | % of total Ulixertinib related exposure ([3]; day 15, steady state) | AUC at 15 day ([3]; in vivo, day 15, non-isotopically enriched ulixertinib and related metabolites, read-out: Steady-State AUC (Mean ± SD)) | IC50 [4] | IC50 [5] | AUC(0-t) ([1]; rat, in vivo, po, 12.5 mg/kg) | half-life ([1]; rat, in vivo, po, 12.5 mg/kg) | AUC0-12 M2, percent change relative to Ulixertinib ([1]; both, rat, in vivo) | AUC0-12 M3, percent change relative to Ulixertinib ([1]; both, rat, in vivo) | AUC0-12 M6, percent change relative to Ulixertinib ([1]; both, rat, in vivo) | AUC0-12 Parent, percent change relative to Ulixertinib ([1]; both, rat, in vivo) | Half-life, percent change relative to Ulixertinib ([1]; both, rat, in vivo) | longer mean half-life than ulixertinib ([1]; both, rat, in vivo) | Compound
173 µg·h/mL | 3.67 h | 91.1% | 179 ± 49 µg·h/mL | 37.5% | 29.6 ± 16.1 µg·h/mL | 37 nM | 250 nM |  |  |  |  |  |  |  |  | CC(C)Nc1cc(-c2c[nH]c(C(=O)N[C@H](CO)c3cccc(Cl)c3)c2)c(Cl)cn1 [Ulixertinib, reference compound]
 |  |  |  |  |  |  |  | 193 µg·h/mL | 3.81 h | (−17%^a) | (+8%^a) | (+7%^a) | (+12%^a) | (+4%^a) | 4% | Cl.[2H]C(C)(C)Nc1cc(-c2c[nH]c(C(=O)N[C@H](CO)c3cccc(Cl)c3)c2)c(Cl)cn1 [Formula 21A]
 |  |  |  |  |  | 40 nM | 300 nM |  |  |  |  |  |  |  |  | [2H]C([2H])([2H])C([2H])(Nc1cc(-c2c[nH]c(C(=O)N[C@H](CO)c3cccc(Cl)c3)c2)c(Cl)cn1)C([2H])([2H])[2H] [Formula 18, 4-(5-chloro-2-((propan-2-yl-d7)amino)pyridin-4-yl)-N-(1-(3-chlorophenyl)-2-hydroxyethyl)-1H-pyrrole-2-carboxamide]
